These results are taken from US20240058318A1, “DEGRADING PKCB1 TO TREAT CANCER” (Mayo Foundation for Medical Education and Research, priority 2020, published 2024).

Holding throughout (format): cell-based
The subject of one test is BT549 cells. Kind of test: Crystal violet (CV) proliferation assay, BT549. As to conditions: BT549 (PKCß1 high, Rb negative), 2000 cells. The method, then: (§1) Cell proliferation rates were determined using crystal violet assays. […] Cells were fixed with 25% glutaraldehyde for 10 minutes with shaking, washed 5 times with distilled water, stained with a 1% crystal violet solution (solubilized in 25% methanol) for 10 minutes, washed again 5 times and allowed to dry. De-staining was performed using […] sodium citrate in 50% ethanol followed by quantification using a 96 well spectrophotometer set at an absorbance of 550 nm.

The next test has as its system MDAH-2774 cells. Kind of test: CV proliferation assay, MDAH-2774 ovarian cancer cells. Conditions: MDAH-2774 (PKCß1 high), 1000 cells/well; read-out: Approximate IC50. The procedure: (§2) Cell proliferation rates were determined using crystal violet assays. One thousand cells per well were plated in 96 well tissue culture plates and treated the following day with a bifunctional compound or control for 7 days in replicates of 8. Cells were fixed with 25% glutaraldehyde for 10 minutes with shaking, washed 5 times with distilled water, stained with a 1% crystal violet solution (solubilized in 25% methanol) for 10 minutes, washed again 5 times and allowed to dry. De-staining was performed using […] sodium citrate in 50% ethanol followed by quantification using a 96 well spectrophotometer set at an absorbance of 550 nm.
(§3) Based on the potent anti-proliferative activity of ENDX-PROTACs TC-Pr-006, TC-Pr-007, TC-Pr -008, and TC-Pr -009 in TNBC cells, the efficacy of these compounds for inhibiting the growth of ovarian cancer cells was tested. This analysis utilized KURAMOCHI cells, which represent the high-grade serous subtype (the most malignant form that accounts for 70% of all ovarian cancers and associates with poor clinical outcome) and MDAH-2774 cells, which represent endometrioid ovarian cancer and accounts for 20% of all ovarian cancer. PKCβ1 was confirmed to be expressed in both ovarian cancer cell line models, with MDAH-2774 cells expressing higher amounts of PKCβ1 compared to KURAMOCHI cells (FIG. 5A).

In the next test the test system is MDAMB436 cells. Nature of the test: Crystal violet (CV) proliferation assay, MDAMB436. Conditions: MDAMB436 (PKCß1 low, Rb negative), 2000 cells. The procedure: as §1
Another test concerns KURAMOCHI cells. Kind of test: CV proliferation assay, KURAMOCHI ovarian cancer cells. Conditions: KURAMOSHI (PKCß1 low), 1000 cells/well; read-out: Approximate IC50. The procedure: as §2, §3
Another test concerns MDAMB231 cells. Nature of the test: Crystal violet (CV) proliferation assay, MDAMB231. Conditions: MDAMB231 (PKCß1 high, Rb positive), 2000 cells. The method, then: as §1
Test [1] has as its system MDAH-2774 and KURAMOCHI ovarian cancer cells. Nature of the test: CV proliferation assay, ovarian cancer cells (statements across lines). As to conditions: MDAH-2774 and KURAMOCHI cells. The procedure:
as §2, §3

Test [2] relates to Rb-proficient (MDAMB231) and Rb-deficient (BT549 and MDAMB436) TNBC cells. Kind of test: CV proliferation assay, TNBC cells (statements across lines). Conditions: Rb-proficient and Rb-deficient TNBC cells, CV assay. The method, then:
as §2
as §2, with “using CV” for “using crystal violet”, “assays. Two” for “assays. One”, “thousand (2000) or 4000” for “thousand”, “for 6” for “for 7”, “of 6.” for “of 8.”

One may read the IC50 as the concentration at which inhibition is half-maximal. As to `CC/C(=C(\c1ccc(O)cc1)c1ccc(OCCN(C)C(=O)COCCOCCNC(=O)c2ccc3c(c2)CN([C@H]2CCC(=O)NC2=O)C3=O)cc1)c1ccccc1` [TC-Pr-006], the IC50 in the test with BT549 cells is 482 nM; with MDAH-2774 cells it was more than 10000 nM; with MDAMB436 cells, 333 nM; in the test with KURAMOCHI cells, more than 10000 nM; in the test with MDAMB231 cells it was 532 nM.
As to `CC/C(=C(\c1ccc(O)cc1)c1ccc(OCCNC)cc1)c1ccccc1` [ENDX, endoxifen, reference compound], in test [1], the “concentration inhibiting growth of ovarian cancer cells” value turned out to be 10 µM. In test [2], the “concentration inhibiting growth of TNBC cells” value was more than 5 µM.
